Assay results from paper PMC11031590, “Narazaciclib, a novel multi-kinase inhibitor with potent activity against CSF1R, FLT3 and CDK6, shows strong anti-AML activity in defined preclinical models” (Scientific Reports, 2024).

Legend:
Ba/F3-FLT3 = Ba/F3-FLT3 proliferation assay; assay type: cell-based, mouse
Protocol: (§1) The recombinant Ba/F3 cell lines overexpressing human CSF1R, or human RBM6-CSF1R, or human ETV6-CSF1R were generated using a retrovirus vector (Kyinno Co., Ltd. Beijing). The recombinant Ba/F3 lines overexpressing human Kras G12C orEGFR-L718Q mutants, and different mutant variants of FLT3 were also similarly created as well. A standard proliferation assay via CTG readout was performed according to the vendor’s instructions (KYinno Biotechnology Co., Ltd. Beijing).

AM5512 AML-PDX = experiment: AM5512 systemic AML-PDX model; assay type: in vivo, NOD/scid mice; conditions: AM5512, 100 mg/kg orally every day
Protocol: For systemic AML-PDX models, the model establishment and narazaciclib pharmacology experiment were performed essentially as described previously. Briefly, 2 × 10^6 AM7407 cells, or 2 × 10^6 AM7577 cells, or 2 × 10^6 AM5512 cells, or 1.65 × 10^6 AM8096 cells were inoculated intravenously into 4- to 5-week-old female NOD/scid mice for AML development. Engraftment was confirmed by the presence of circulating human CD45+ cells (anti-human CD45 antibody, Cat. 304038, Biolegend) in peripheral blood. Mice with successful engraftment of AML-PDX were randomized into different treatment groups (N = 6) and received their designated treatments. Narazaciclib was administrated orally or intraperitoneally at 10 mg/kg, or 30 mg/kg, or 100 mg/kg every day throughout the study, while Cytarabine was administrated intraperitoneally at 3 mg/kg every day. Following the initiation of designated treatments, leukemic burden was monitored by flow cytometry with anti-human CD45 antibody on the peripheral blood every week as well as on the peripheral blood, bone marrow cells and splenocytes of mice at sacrifice. Mice were sacrifice once the followings are observed: body weight loss over 20%, reduced motility and activity, labored breathing, ruffled coat, hunched back and severe dehydration.

Ba/F3-KRAS-G12C = Ba/F3-KRAS-G12C proliferation assay (CTG); assay type: cell-based; conditions: Mus musculus
Protocol: as §1

AML cell lines = experiment: In vitro proliferation assay, panel of 33 AML cell lines (summary statements); assay type: cell-based; conditions: a subset of AML lines; read-out: IC50 growth inhibition
Protocol: Narazaciclib was serially diluted with culture medium to 9 final assay concentrations from 0.01 to 100 μM. The assay was performed with both a negative control (vehicle) and a positive control (Cisplatin) in triplicate. The AML cell lines at log-growth phase were cultured in 96-well plates (black transparent flat bottom 96-well plate, Corning, Cat# 3603, FBS, ExCell Bio., Cat# FND500) in the presence of narazaciclib or Cisplatin at various concentrations for 72 h or 120 h (only for AML-193 cell line), followed by CTG readout according to the manufacturer’s instruction (CellTiter-Glo Luminescent Cell Viability Assay, Promega, Cat# G7573). Viability%=Lumdrug-Lummedium control/Lumcell control-Lummedium control×100%. Lumcell control-Lummedium controlas100%,LumMediumcontrolas0%. […]
Dose–response curves were fitted by a 4-parameter log-logistic model: Inhibition%=Bottom+Top-Bottom/1+10^logEC50-x∗HillSlope where Top and Bottom are the two asymptotes of the sigmoidal curve, EC50 is the relative IC50, concentration x is in log-10 scale and HillSlope is the slope at the EC50 point on the fitted curve. The fitted area under the curve (AUC) was calculated by: Inhibition%=Bottom+Top-Bottom/1+10^logEC50-x∗HillSlope where a represents the log10-transformed minimal concentration and b represents the log10-transformed maximal concentration. […]

MOLM-13 = experiment: AML cell line in vitro proliferation assay; assay type: cell-based
Protocol: (§2) Narazaciclib was serially diluted with culture medium to 9 final assay concentrations from 0.01 to 100 μM. The assay was performed with both a negative control (vehicle) and a positive control (Cisplatin) in triplicate. The AML cell lines at log-growth phase were cultured in 96-well plates (black transparent flat bottom 96-well plate, Corning, Cat# 3603, FBS, ExCell Bio., Cat# FND500) in the presence of narazaciclib or Cisplatin at various concentrations for 72 h or 120 h (only for AML-193 cell line), followed by CTG readout according to the manufacturer’s instruction (CellTiter-Glo Luminescent Cell Viability Assay, Promega, Cat# G7573). Viability%=Lumdrug-Lummedium control/Lumcell control-Lummedium control×100%. Lumcell control-Lummedium controlas100%,LumMediumcontrolas0%. Proliferationfold increase=D5-LumNone treated-LumMedium control/D2LumNone treated-LumMedium control
(§3) Dose–response curves were fitted by a 4-parameter log-logistic model: Inhibition%=Bottom+Top-Bottom/1+10^logEC50-x∗HillSlope where Top and Bottom are the two asymptotes of the sigmoidal curve, EC50 is the relative IC50, concentration x is in log-10 scale and HillSlope is the slope at the EC50 point on the fitted curve. The fitted area under the curve (AUC) was calculated by: Inhibition%=Bottom+Top-Bottom/1+10^logEC50-x∗HillSlope where a represents the log10-transformed minimal concentration and b represents the log10-transformed maximal concentration. An extremely strong positive correlation between the absolute IC50 and AUC is shown in Supplemental Fig. S5.

M07E = experiment: AML cell line in vitro proliferation assay; assay type: cell-based
Protocol: as §2, §3

OCI-M2 = experiment: AML cell line in vitro proliferation assay; assay type: cell-based
Protocol: as §2, §3

OCI-AML-3 = experiment: AML cell line in vitro proliferation assay; assay type: cell-based
Protocol: as §2, §3

KASUMI-1 = experiment: AML cell line in vitro proliferation assay; assay type: cell-based
Protocol: as §2, §3

MONOMAC-6 = experiment: AML cell line in vitro proliferation assay; assay type: cell-based
Protocol: as §2, §3

[1] = system: Ba/F3-ETV6-CSF1R xenograft; experiment: Ba/F3-ETV6-CSF1R subcutaneous xenograft model; assay type: in vivo, NOD/scid mice; conditions: either 50 mg/kg or 100 mg/kg
Source text: The subcutaneous cell line xenograft (CDX) models and systemic patient-derived xenograft (PDX) models of AML have been extensively described before. For the subcutaneous MV-4-11 CDX model, 5 × 10^6 MV-4-11 tumor cells harvested from exponential growth phase were mixed with Matrigel (1:1) and then inoculated into the right front flank region of 6- to 7-week-old female NOD/scid mice for tumor development. MV-4-11 tumor-bearing mice were randomized into 5 groups (N = 8) when their tumor volume reached approximately 100 mm^3 and received their designated treatments following randomization. Narazaciclib was administrated intraperitoneally at 100 mg/kg twice per week for 3 weeks, while Azacitidine was administrated intraperitoneally at 3 mg/kg twice per week for 3 weeks. For the subcutaneous Ba/F3-ETV6-CSF1R CDX model, 1 × 10^6 Ba/F3-ETV6-CSF1R tumor cells harvested from exponential growth phase were mixed with Matrigel (1:1) and then inoculated into the right front flank region of 6- to 8-week-old female NOD/scid mice for tumor development. Ba/F3-ETV6-CSF1R tumor-bearing mice were randomized into 5 groups (N = 6) when their tumor volume reached approximately 100 mm^3 and received their designated treatments following randomization. […] Tumor volume and body weight were measured at different time points and tumor growth inhibition (TGI) was used as index to determine the therapeutic efficacy.

[2] = system: Ba/F3-RBM6-CSF1R cell line; experiment: Ba/F3-RBM6-CSF1R proliferation assay (CTG); assay type: cell-based, mouse; conditions: Mus musculus; not requiring CSF1
Protocol: as §1

For `CN1CCN(c2ccc(Nc3ncc4cc(C#N)c(=O)n(C5CCCC5)c4n3)cc2)CC1` [Narazaciclib, narazaciclib], which “% of Ba/F3-FLT3 (IC50)” value (Ba/F3-FLT3; Ba/F3-FLT3) is on record?
Its value is 100.00%.

What about the IC50 (Ba/F3-FLT3; Mus musculus, Ba/F3-FLT3 (wild type)) of the same compound?
The IC50 was 301 nM.

And the response of model (AM5512 AML-PDX)?
Its response of model is “did not respond”.

And the IC50 (Ba/F3-KRAS-G12C)?
The IC50 was 490 nM.

And the IC50 (AML cell lines)?
The IC50 was < 1500 nM.

And the IC50 (MOLM-13; Homo sapiens, MOLM-13, 72 h, CTG)?
The IC50 was 103 nM.

And the “Classification by AUC” value (MOLM-13; MOLM-13)?
Its value is “Sensitive (AUC ≤ 2.4, sensitive)”.

What about the AUC (MOLM-13; MOLM-13, area under the dose–response curve) of the same compound?
Its AUC is 1.068.

What about the “Classification by AUC” value (M07E) of the same compound?
The value was “Intermediate (2.4 < AUC < 2.8, intermediate)”.

What about the IC50 (M07E; M-07e, 72 h, CTG) of the same compound?
The IC50 was 4860 nM.

What about the AUC (M07E; area under the dose–response curve) of the same compound?
The AUC was 2.557.

And the “Classification by AUC” value (OCI-M2; OCI-M2)?
Its value is “Insensitive (AUC ≥ 2.8, insensitive)”.

What about the IC50 (OCI-M2; OCI-M2, 72 h, CTG) of the same compound?
Its IC50 is > 100000 nM.

What about the AUC (OCI-M2; OCI-M2, area under the dose–response curve) of the same compound?
Its AUC is 3.46.

And the IC50 (OCI-AML-3; Homo sapiens, OCI-AML-3, 72 h, CTG)?
Its IC50 is 2940 nM.

And the “Classification by AUC” value (OCI-AML-3; OCI-AML-3)?
Its value is “Insensitive (AUC ≥ 2.8, insensitive)”.

And the AUC (OCI-AML-3; OCI-AML-3, area under the dose–response curve)?
Its AUC is 2.863.

And the IC50 (KASUMI-1; Homo sapiens, KASUMI-1, 72 h, CTG)?
Its IC50 is 169 nM.

And the “Classification by AUC” value (KASUMI-1; KASUMI-1)?
Its value is “Sensitive (AUC ≤ 2.4, sensitive)”.

And the AUC (KASUMI-1; KASUMI-1, area under the dose–response curve)?
The AUC was 1.307.

What about the IC50 (MONOMAC-6; Homo sapiens, MONO-MAC-6, MONOMAC-6, 72 h, CTG) of the same compound?
The IC50 was 1520 nM.

And the “Classification by AUC” value (MONOMAC-6; MONOMAC-6)?
The value was “Sensitive (AUC ≤ 2.4, sensitive)”.

And the AUC (MONOMAC-6; MONOMAC-6, area under the dose–response curve)?
Its AUC is 2.356.

And the tumor growth [1]?
The tumor growth was “significantly delayed the tumor growth”.

What about the IC50 [2] of the same compound?
Its IC50 is 36.9 nM.
